Molecules are shown by their SMILES.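 Test compounds were applied to cells in 96-well plates for 48 hours at 5 doses. At the GI50, growth is halved. TGI: total growth inhibition.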

The first experiment relates to CCRF-CEM leukemia. The experiment in a line: NCI-60 cell line screen, 48 h.
As to `Nc1nc(SN=Nc2ccc(S(N)(=O)=O)cc2)c2[nH]cnc2n1`, the GI50 is 0.268 µM and the TGI was above 100 µM.
Taken in the same sequence, the figures for `COCCOc1cnc2ccn([C@H](C)c3nnc4c(F)cc(-c5cnn(C)c5)cn34)c(=O)c2c1` were above 100 µM and above 100 µM.
Consider `CCc1ccccc1NC(=O)c1sc2nc3c(cc2c1N)C(=O)CCC3`, for which the GI50 was 0.352 µM and the TGI is above 100 µM.
Taken in the same sequence, the figures for `C[C@]12CC[C@@H]3c4ccc(O)cc4CC[C@H]3[C@@H]1CC[C@@H]2NS(=O)(=O)c1cccc(F)c1` were 3.28 µM and 18.6 µM.
Take `CCOC(=O)c1c[nH]c2oc(/C=N/N3CC(CN4CCOCC4)OC3=O)cc2c1=O` (stereo not given): the TGI was above 100 µM.
On to `COc1ccc(-c2oc3cc(O)c(OC)c(O)c3c(=O)c2OC)cc1O`, for which the GI50 is 0.343 µM and the TGI was above 100 µM.
`Cc1c(C2=C(Br)C(=O)N(C)C2=O)c(=O)n(C)c(=O)n1C` gave a TGI of 48 µM.
For `NC(CS/C(Cl)=C/Cl)C(=O)O` (stereo not given), the GI50 is 20.3 µM and the TGI was above 100 µM.
For `CCn1c(CO)nn(-c2cc(O[C@@H](C)C(F)(F)F)c(C(=O)Nc3c(F)cccc3Cl)cc2F)c1=O` the same measures were below 0.01 µM and above 100 µM.
Compound `CC1CCC(=O)C(C(=O)CC2CC(=O)NC(=O)C2)C1` (stereo not given) gave a TGI above 100 µM.
As for `O=C(Nc1ccc(CO)cc1)c1coc2ccccc2c1=O`, the GI50 was above 100 µM and the TGI was above 100 µM.
For the compound `Cc1cc(N/N=C/c2nc(-c3ccc(Br)cc3)oc2C)c2cc(Br)ccc2n1`, the GI50 was 2 µM and the TGI is 29.7 µM.
In the case of `COc1ccc2c(c1)C(C)Cc1c(ncnc1-n1c(C)nc3ccccc31)N2C` (stereo not given), the GI50 is 2.85 µM and the TGI came out at 16.4 µM.
For the compound `COc1ccc2c(O)cc3c(c2c1)[C@H](CCl)CN3C(=O)c1cc2cc(NC(=O)CCN3CCOCC3)ccc2[se]1`, the GI50 was below 0.001 µM.
On to `COc1cc(C2=C(c3cn(C)c4ccccc34)COC2=O)cc(OC)c1OC`, for which the GI50 is 0.0592 µM and the TGI is above 100 µM.
`COc1ccc2c(c1)[C@@]13CCCC[C@H]1[C@@H](C2)N(C)CC3=O` gave a TGI of 73.6 µM.
Take `COc1ccc(Nc2c3ccccc3nc3occ(Cl)c23)cc1`: the GI50 was 0.0199 µM and the TGI came to 0.416 µM.

In another experiment the test system is HCC-2998 colon. The experiment can be described thus: NCI-60 cell line screen, 48 h.
For `Nc1nc(SN=Nc2ccc(S(N)(=O)=O)cc2)c2[nH]cnc2n1`, the GI50 is 0.508 µM and the TGI was above 100 µM.
For `COCCOc1cnc2ccn([C@H](C)c3nnc4c(F)cc(-c5cnn(C)c5)cn34)c(=O)c2c1` the same measures were above 100 µM and above 100 µM.
For `CCc1ccccc1NC(=O)c1sc2nc3c(cc2c1N)C(=O)CCC3` the same measures were 1.67 µM and above 100 µM.
For `C[C@]12CC[C@@H]3c4ccc(O)cc4CC[C@H]3[C@@H]1CC[C@@H]2NS(=O)(=O)c1cccc(F)c1` the same measures were 5.27 µM and 16.9 µM.
`CCOC(=O)c1c[nH]c2oc(/C=N/N3CC(CN4CCOCC4)OC3=O)cc2c1=O` (stereo not given) yielded a TGI above 100 µM.
Consider `COc1ccc(-c2oc3cc(O)c(OC)c(O)c3c(=O)c2OC)cc1O`, for which the GI50 is 1.22 µM and the TGI was above 100 µM.
In the case of `Cc1c(C2=C(Br)C(=O)N(C)C2=O)c(=O)n(C)c(=O)n1C`, the TGI amounted to 53.3 µM.
`NC(CS/C(Cl)=C/Cl)C(=O)O` (stereo not given): the GI50 is 68.8 µM and the TGI was above 100 µM.
As to `CCn1c(CO)nn(-c2cc(O[C@@H](C)C(F)(F)F)c(C(=O)Nc3c(F)cccc3Cl)cc2F)c1=O`, the GI50 is below 0.01 µM and the TGI is above 100 µM.
Consider `CC1CCC(=O)C(C(=O)CC2CC(=O)NC(=O)C2)C1` (stereo not given), for which the TGI was above 100 µM.
As to `O=C(Nc1ccc(CO)cc1)c1coc2ccccc2c1=O`, the GI50 is above 100 µM and the TGI is above 100 µM.
For the compound `Cc1cc(N/N=C/c2nc(-c3ccc(Br)cc3)oc2C)c2cc(Br)ccc2n1`, the GI50 was 7.43 µM and the TGI was 20.8 µM.
For `COc1ccc2c(c1)C(C)Cc1c(ncnc1-n1c(C)nc3ccccc31)N2C` (stereo not given) the same measures were 4.09 µM and 16.4 µM.
In the case of `COc1ccc2c(O)cc3c(c2c1)[C@H](CCl)CN3C(=O)c1cc2cc(NC(=O)CCN3CCOCC3)ccc2[se]1`, the GI50 was below 0.001 µM and the TGI worked out at 0.00715 µM.
Taken in the same sequence, the figures for `COc1cc(C2=C(c3cn(C)c4ccccc34)COC2=O)cc(OC)c1OC` were 0.429 µM and 5.2 µM.
In turn, `COc1ccc2c(c1)[C@@]13CCCC[C@H]1[C@@H](C2)N(C)CC3=O` had a TGI of 31.5 µM.
As to `COc1ccc(Nc2c3ccccc3nc3occ(Cl)c23)cc1`, the GI50 was below 0.01 µM and the TGI came out at 0.0909 µM.

Another experiment concerns HT29 colon. The experiment can be described thus: NCI-60 cell line screen, 48 h.
For `Nc1nc(SN=Nc2ccc(S(N)(=O)=O)cc2)c2[nH]cnc2n1`, the GI50 is 0.79 µM and the TGI was above 100 µM.
Take `COCCOc1cnc2ccn([C@H](C)c3nnc4c(F)cc(-c5cnn(C)c5)cn34)c(=O)c2c1`: the GI50 was above 100 µM and the TGI is above 100 µM.
On to `CCc1ccccc1NC(=O)c1sc2nc3c(cc2c1N)C(=O)CCC3`, for which the GI50 was 0.372 µM and the TGI is 29.5 µM.
For `C[C@]12CC[C@@H]3c4ccc(O)cc4CC[C@H]3[C@@H]1CC[C@@H]2NS(=O)(=O)c1cccc(F)c1` the same measures were 3.2 µM and 10.1 µM.
`CCOC(=O)c1c[nH]c2oc(/C=N/N3CC(CN4CCOCC4)OC3=O)cc2c1=O` (stereo not given) displayed a TGI above 100 µM.
For `COc1ccc(-c2oc3cc(O)c(OC)c(O)c3c(=O)c2OC)cc1O`, the GI50 is 3.5 µM and the TGI is above 100 µM.
Compound `Cc1c(C2=C(Br)C(=O)N(C)C2=O)c(=O)n(C)c(=O)n1C` showed a TGI of 42.2 µM.
On to `NC(CS/C(Cl)=C/Cl)C(=O)O` (stereo not given), for which the GI50 was 54.7 µM and the TGI is above 100 µM.
Taken in the same sequence, the figures for `CCn1c(CO)nn(-c2cc(O[C@@H](C)C(F)(F)F)c(C(=O)Nc3c(F)cccc3Cl)cc2F)c1=O` were below 0.01 µM and above 100 µM.
Compound `CC1CCC(=O)C(C(=O)CC2CC(=O)NC(=O)C2)C1` (stereo not given) yielded a TGI above 100 µM.
Regarding `O=C(Nc1ccc(CO)cc1)c1coc2ccccc2c1=O`, the GI50 was above 100 µM and the TGI is above 100 µM.
For `Cc1cc(N/N=C/c2nc(-c3ccc(Br)cc3)oc2C)c2cc(Br)ccc2n1`, the GI50 is 3.14 µM and the TGI amounted to 13.7 µM.
Taken in the same sequence, the figures for `COc1ccc2c(c1)C(C)Cc1c(ncnc1-n1c(C)nc3ccccc31)N2C` (stereo not given) were 2.81 µM and 8.94 µM.
For `COc1ccc2c(O)cc3c(c2c1)[C@H](CCl)CN3C(=O)c1cc2cc(NC(=O)CCN3CCOCC3)ccc2[se]1` the same measures were below 0.001 µM and above 3.24 µM.
Regarding `COc1cc(C2=C(c3cn(C)c4ccccc34)COC2=O)cc(OC)c1OC`, the GI50 was 0.0383 µM.
Take `COc1ccc2c(c1)[C@@]13CCCC[C@H]1[C@@H](C2)N(C)CC3=O`: the TGI turned out to be 37.5 µM.
Take `COc1ccc(Nc2c3ccccc3nc3occ(Cl)c23)cc1`: the GI50 was below 0.0145 µM and the TGI was above 34.8 µM.

The test system of a further experiment is NCI/ADR-RES ovarian. The experiment in a line: NCI-60 cell line screen, 48 h.
Turning to `Nc1nc(SN=Nc2ccc(S(N)(=O)=O)cc2)c2[nH]cnc2n1`, the GI50 was 0.455 µM and the TGI is above 100 µM.
For `COCCOc1cnc2ccn([C@H](C)c3nnc4c(F)cc(-c5cnn(C)c5)cn34)c(=O)c2c1` the same measures were above 100 µM and above 100 µM.
For `CCc1ccccc1NC(=O)c1sc2nc3c(cc2c1N)C(=O)CCC3` the same measures were 0.433 µM and 41.1 µM.
For `C[C@]12CC[C@@H]3c4ccc(O)cc4CC[C@H]3[C@@H]1CC[C@@H]2NS(=O)(=O)c1cccc(F)c1` the same measures were 2.88 µM and 17 µM.
For the compound `CCOC(=O)c1c[nH]c2oc(/C=N/N3CC(CN4CCOCC4)OC3=O)cc2c1=O` (stereo not given), the TGI is above 100 µM.
Regarding `COc1ccc(-c2oc3cc(O)c(OC)c(O)c3c(=O)c2OC)cc1O`, the GI50 is 0.0456 µM and the TGI was above 100 µM.
Turning to `Cc1c(C2=C(Br)C(=O)N(C)C2=O)c(=O)n(C)c(=O)n1C`, the TGI amounted to 74.1 µM.
`NC(CS/C(Cl)=C/Cl)C(=O)O` (stereo not given): the GI50 was 31.8 µM and the TGI was above 100 µM.
For `CCn1c(CO)nn(-c2cc(O[C@@H](C)C(F)(F)F)c(C(=O)Nc3c(F)cccc3Cl)cc2F)c1=O` the same measures were below 0.0245 µM and above 93.5 µM.
In turn, `CC1CCC(=O)C(C(=O)CC2CC(=O)NC(=O)C2)C1` (stereo not given) yielded a TGI above 100 µM.
With `O=C(Nc1ccc(CO)cc1)c1coc2ccccc2c1=O`, the GI50 was above 100 µM and the TGI is above 100 µM.
Turning to `Cc1cc(N/N=C/c2nc(-c3ccc(Br)cc3)oc2C)c2cc(Br)ccc2n1`, the GI50 is 2.71 µM and the TGI came out at 9.03 µM.
For `COc1ccc2c(c1)C(C)Cc1c(ncnc1-n1c(C)nc3ccccc31)N2C` (stereo not given) the same measures were 2 µM and 19.3 µM.
Take `COc1ccc2c(O)cc3c(c2c1)[C@H](CCl)CN3C(=O)c1cc2cc(NC(=O)CCN3CCOCC3)ccc2[se]1`: the GI50 is below 0.001 µM.
As for `COc1cc(C2=C(c3cn(C)c4ccccc34)COC2=O)cc(OC)c1OC`, the GI50 is 0.0464 µM and the TGI stood at 2.07 µM.
In turn, `COc1ccc2c(c1)[C@@]13CCCC[C@H]1[C@@H](C2)N(C)CC3=O` came in with a TGI of 84.4 µM.
Take `COc1ccc(Nc2c3ccccc3nc3occ(Cl)c23)cc1`: the GI50 is below 0.01 µM and the TGI was found to be 2.09 µM.

A further experiment concerns SN12C renal. The experiment can be described thus: NCI-60 cell line screen, 48 h.
Consider `Nc1nc(SN=Nc2ccc(S(N)(=O)=O)cc2)c2[nH]cnc2n1`, for which the GI50 was 0.698 µM and the TGI is above 100 µM.
For `COCCOc1cnc2ccn([C@H](C)c3nnc4c(F)cc(-c5cnn(C)c5)cn34)c(=O)c2c1` the same measures were above 100 µM and above 100 µM.
Regarding `CCc1ccccc1NC(=O)c1sc2nc3c(cc2c1N)C(=O)CCC3`, the GI50 was 0.729 µM and the TGI was above 100 µM.
Taken in the same sequence, the figures for `C[C@]12CC[C@@H]3c4ccc(O)cc4CC[C@H]3[C@@H]1CC[C@@H]2NS(=O)(=O)c1cccc(F)c1` were 2.35 µM and 6.39 µM.
In the case of `CCOC(=O)c1c[nH]c2oc(/C=N/N3CC(CN4CCOCC4)OC3=O)cc2c1=O` (stereo not given), the TGI was above 100 µM.
For the compound `COc1ccc(-c2oc3cc(O)c(OC)c(O)c3c(=O)c2OC)cc1O`, the GI50 is 0.212 µM and the TGI was above 100 µM.
`Cc1c(C2=C(Br)C(=O)N(C)C2=O)c(=O)n(C)c(=O)n1C` came in with a TGI above 100 µM.
As to `NC(CS/C(Cl)=C/Cl)C(=O)O` (stereo not given), the GI50 is 43.3 µM and the TGI is above 100 µM.
For `CCn1c(CO)nn(-c2cc(O[C@@H](C)C(F)(F)F)c(C(=O)Nc3c(F)cccc3Cl)cc2F)c1=O`, the GI50 was 0.081 µM and the TGI is above 100 µM.
With `CC1CCC(=O)C(C(=O)CC2CC(=O)NC(=O)C2)C1` (stereo not given), the TGI was above 100 µM.
`O=C(Nc1ccc(CO)cc1)c1coc2ccccc2c1=O`: the GI50 was above 100 µM and the TGI was above 100 µM.
Turning to `Cc1cc(N/N=C/c2nc(-c3ccc(Br)cc3)oc2C)c2cc(Br)ccc2n1`, the GI50 is 2.1 µM and the TGI turned out to be 5.36 µM.
For `COc1ccc2c(c1)C(C)Cc1c(ncnc1-n1c(C)nc3ccccc31)N2C` (stereo not given) the same measures were 13 µM and 77.6 µM.
Taken in the same sequence, the figures for `COc1ccc2c(O)cc3c(c2c1)[C@H](CCl)CN3C(=O)c1cc2cc(NC(=O)CCN3CCOCC3)ccc2[se]1` were below 0.001 µM and 0.0334 µM.
For `COc1cc(C2=C(c3cn(C)c4ccccc34)COC2=O)cc(OC)c1OC`, the GI50 is 0.593 µM and the TGI is above 100 µM.
`COc1ccc2c(c1)[C@@]13CCCC[C@H]1[C@@H](C2)N(C)CC3=O`: the TGI is 50.4 µM.

These data come from PubChem BioAssay (NCI).
